Here are results for 13 compounds from patent US5486596A, “Analogues of 8-D-homoarginine vasopressin” (Ceskoslovenska akademie ved, priority 1989, dated 1996).

Assay [1] relates to rats. The note with it: for Uterotonic activity: agonistic activity, rat.
Assay [2] deals with despinalized male rats. The note with it: for Pressoric activity: despinalized male rats.
Assay [3] deals with FVIII. The assay can be described thus: FVIII activity in squirrel monkeys (blood coagulation). The format is in vivo. Conditions: for FVIII/%: squirrel monkeys, saline control = 100% (basal value). How it is done:
(§1) Compounds of the present invention ware evaluated for their ability to affect blood coagulation and fibrinolytic properties. The compounds were compared with [8-D-argenine]deamino vasopressin in squirrel monkeys. The findings of dissociated blood coagulation/fibrinolytic properties and the inhibitory properties are new and surprising properties for the series of vasopressin derived peptides.

Assay [4] has as its system tPA. The assay can be described thus: tPA activity in squirrel monkeys (fibrinolytic properties). Conditions: for tPA/%: squirrel monkeys, saline control = 100% (basal value). The format is in vivo. As for the experimental part: as §1
Assay [5] has as its system rats. Kind of assay: antidiuretic activity according to Burn, dDAVP as standard. The format is in vivo. The note with it: rat, relative to the standard dDAVP. How it is done:
The biological activity of the peptides was tested on rats, namely: the uterotonic activity (agonistic and antagonistic) according to the Holton's method (Holtdon, J.: Brit. J. Pharmacol., 3,328, 1960) modified by Munsick (Endocrinology, 66, 451, 1960), the inhibitory activity being expressed as pA2 (Eggen et al.: J. Gen. Physiol., 56, 250, 1970), the pressoric activity was determined on despinalized male rats according to Krejci et al. (Brit. J. Pharm. Chemother., 30, 497, 1967) and the antidiuretic activity according to Burn (Burn et al.: Biol. Stand. Oxford Univ. Press, London, 1950) with [deaminol, D-arginine^8 ]vasopressin (dDAVP) used as the standard.

Setting [6] is: inhibitory (antagonistic) activity expressed as pA2, rat.
Setting [7] is: inhibitory activity expressed as pA2, despinalized male rats.

Where two headings read alike, the source gives them in different places. Bridge positions count the residues as written; N and C are the ends. Square brackets hold non-standard residues; d marks the D form. Peptide text beside a SMILES is read from it. dPhe(4-Et) = CCc1ccc(C[C@@H](N)C(=O)O)cc1; dPhe(4-Me) = Cc1ccc(C[C@@H](N)C(=O)O)cc1; Phe(4-Et) = CCc1ccc(C[C@H](N)C(=O)O)cc1; Phe(4-Me) = Cc1ccc(C[C@H](N)C(=O)O)cc1; d(hArg) = N=C(N)NCCCC[C@@H](N)C(=O)O; Mpa = O=C(O)CCS

As for `CCc1ccc(C[C@@H]2NC(=O)CCSSC[C@@H](C(=O)N3CCC[C@H]3C(=O)N[C@H](CCCCNC(=N)N)C(=O)NCC(N)=O)NC(=O)[C@H](CC(N)=O)NC(=O)[C@H](CCC(N)=O)NC(=O)[C@H](Cc3ccccc3)NC2=O)cc1` [VII, [Mpr^1, L-p-EtPhe^2, D--Har^8] vasopressin] ([Mpa][Phe(4-Et)]FQNCP[d(hArg)]G-NH2; disulfide 1-6), in assay [1], the “Uterotonic activity, pA2” value was 8.0. Further, the “Pressoric activity, pA2” value in assay [2] (rat, in vivo) was found to be 6.2.

For `COc1ccc(C[C@@H]2NC(=O)CCSSC[C@@H](C(=O)N3CCC[C@H]3C(=O)N[C@H](CCCCNC(=N)N)C(=O)NCC(N)=O)NC(=O)[C@H](CC(N)=O)NC(=O)[C@H](CCC(N)=O)NC(=O)[C@H](Cc3ccccc3)NC2=O)cc1` [VI, [1-mercaptopropionic acid, 2-O-methyltyrosine 8-D-homoarginine]vasopressin], the “Uterotonic activity, pA2” value in assay [1] worked out at 8.1.

“[2-p-methyl-L-phenylalanine, 8-D-homoarginine]vasopressin [IV]” had an FVIII/% in assay [3] of 85%. Also, the tPA/% in assay [4] is reported as 77%. The “Uterotonic activity, pA2” value in assay [1] (setting [6]) turned out to be 6.85. Further, the Pressoric activity in assay [2] was determined as 0.04 IU/mg. Also, the Antidiuretic activity in assay [5] is given as under 0.1 % dDAVP.

“[2-p-ethyl-D-phenylalanine, 8-D-homoarginine]vasopressin [III]”: the “Uterotonic activity, pA2” value in assay [1] (setting [6]) is given as 8.15. Further, in assay [2] (setting [7]), the “Pressoric activity, pA2” value worked out at 6.5. Besides, the Antidiuretic activity in assay [5] was under 0.1 % dDAVP.

As to `Cc1ccc(C[C@H]2NC(=O)CCSSC[C@@H](C(=O)N3CCC[C@H]3C(=O)N[C@H](CCCCNC(=N)N)C(=O)NCC(N)=O)NC(=O)[C@H](CC(N)=O)NC(=O)[C@H](CCC(N)=O)NC(=O)[C@H](Cc3ccccc3)NC2=O)cc1` [X, [Mpr^1, D-p-MePhe^2, D--Har^8] vasopressin] ([Mpa][dPhe(4-Me)]FQNCP[d(hArg)]G-NH2; disulfide 1-6), the “Uterotonic activity, pA2” value in assay [1] is recorded as 8.68.

In turn, “[Mpr^1, D--Har^8 ] vasopressin [reference compound]” registered an FVIII/% in assay [3] of 127%. In addition, in assay [4], the tPA/% came to 88%. The same compound had a Uterotonic activity in assay [1] of 0.8 IU/mg. In addition, in assay [2], the Pressoric activity worked out at 0.28 IU/mg. In assay [5], the Antidiuretic activity is listed as ~ 5 % dDAVP.

Regarding “[D--Har^8 ] vasopressin [reference compound]”, the Uterotonic activity in assay [1] is given as 0.9 IU/mg. Further, in assay [5], the Antidiuretic activity was ~ 1 % dDAVP.

On to `CCc1ccc(C[C@H]2NC(=O)CCSSC[C@@H](C(=O)N3CCC[C@H]3C(=O)N[C@H](CCCCNC(=N)N)C(=O)NCC(N)=O)NC(=O)[C@H](CC(N)=O)NC(=O)[C@H](CCC(N)=O)NC(=O)[C@H](Cc3ccccc3)NC2=O)cc1` [VIII, [Mpr^1, D-p-EtPhe^2, D--Har^8] vasopressin] ([Mpa][dPhe(4-Et)]FQNCP[d(hArg)]G-NH2; disulfide 1-6), for which, in assay [1], the “Uterotonic activity, pA2” value came to 8.63. Also, the “Pressoric activity, pA2” value in assay [2] (rat, in vivo) is 6.35.

In the case of `Cc1ccc(C[C@@H]2NC(=O)CCSSC[C@@H](C(=O)N3CCC[C@H]3C(=O)N[C@H](CCCCNC(=N)N)C(=O)NCC(N)=O)NC(=O)[C@H](CC(N)=O)NC(=O)[C@H](CCC(N)=O)NC(=O)[C@H](Cc3ccccc3)NC2=O)cc1` [IX, [Mpr^1, L-p-MePhe^2, D--Har^8] vasopressin] ([Mpa][Phe(4-Me)]FQNCP[d(hArg)]G-NH2; disulfide 1-6), the “Uterotonic activity, pA2” value in assay [1] worked out at 8.38. Further, the “Pressoric activity, pA2” value in assay [2] (rat, in vivo) is recorded as 6.2.

[8-D-arginine] deamino vasopressin: the “effect on expression of Factor VIII, in words” value in assay [3] (monkey, in vivo) is reported as “increase”. The same compound displayed an FVIII/% in assay [3] of 149%. In assay [4] (monkey, in vivo), the “effect on expression of tPA, in words” value is on record as “increase”. Also, the tPA/% in assay [4] is reported as 138.9%.

For “[2-p-ethyl-L-phenylalanine, 8-D-homoarginine]vasopressin [II]”, in assay [1] (setting [6]), the “Uterotonic activity, pA2” value turned out to be 7.40. For the same compound, in assay [2] (setting [7]), the “Pressoric activity, pA2” value is 6.5. Besides, the Antidiuretic activity in assay [5] is recorded as under 0.1 % dDAVP.

With `COc1ccc(C[C@@H]2NC(=O)[C@@H](N)CSSC[C@@H](C(=O)N3CCC[C@H]3C(=O)N[C@H](CCCCNC(=N)N)C(=O)NCC(N)=O)NC(=O)[C@H](CC(N)=O)NC(=O)[C@H](CCC(N)=O)NC(=O)[C@H](Cc3ccccc3)NC2=O)cc1` [I, [2-O-methyltyrosine, 8-D-homoarginine]vasopressin], the “Uterotonic activity, pA2” value in assay [1] is given as 7.7.

For “[2-p-methyl-D-phenylalanine, 8-D-homoarginine]vasopressin”, the FVIII/% in assay [3] is 55%. The tPA/% in assay [4] was determined as 65%. The “Uterotonic activity, pA2” value in assay [1] (setting [6]) is on record as 6.85. This compound also came in with a Pressoric activity in assay [2] of 0.04 IU/mg. Further, in assay [5], the Antidiuretic activity is reported as under 0.1 % dDAVP.
